# Measurements published in patent US20240226115A1, “AXL INHIBITOR COMPOUNDS” (ARCUS BIOSCIENCES, INC., priority 2021, published 2024).
# Molecular target: T1, recombinant human TYRO3 (Homo sapiens, UniProt Q06418)
# T1 construct: purchased Invitrogen
# T1 sequence (Q06418 41-890): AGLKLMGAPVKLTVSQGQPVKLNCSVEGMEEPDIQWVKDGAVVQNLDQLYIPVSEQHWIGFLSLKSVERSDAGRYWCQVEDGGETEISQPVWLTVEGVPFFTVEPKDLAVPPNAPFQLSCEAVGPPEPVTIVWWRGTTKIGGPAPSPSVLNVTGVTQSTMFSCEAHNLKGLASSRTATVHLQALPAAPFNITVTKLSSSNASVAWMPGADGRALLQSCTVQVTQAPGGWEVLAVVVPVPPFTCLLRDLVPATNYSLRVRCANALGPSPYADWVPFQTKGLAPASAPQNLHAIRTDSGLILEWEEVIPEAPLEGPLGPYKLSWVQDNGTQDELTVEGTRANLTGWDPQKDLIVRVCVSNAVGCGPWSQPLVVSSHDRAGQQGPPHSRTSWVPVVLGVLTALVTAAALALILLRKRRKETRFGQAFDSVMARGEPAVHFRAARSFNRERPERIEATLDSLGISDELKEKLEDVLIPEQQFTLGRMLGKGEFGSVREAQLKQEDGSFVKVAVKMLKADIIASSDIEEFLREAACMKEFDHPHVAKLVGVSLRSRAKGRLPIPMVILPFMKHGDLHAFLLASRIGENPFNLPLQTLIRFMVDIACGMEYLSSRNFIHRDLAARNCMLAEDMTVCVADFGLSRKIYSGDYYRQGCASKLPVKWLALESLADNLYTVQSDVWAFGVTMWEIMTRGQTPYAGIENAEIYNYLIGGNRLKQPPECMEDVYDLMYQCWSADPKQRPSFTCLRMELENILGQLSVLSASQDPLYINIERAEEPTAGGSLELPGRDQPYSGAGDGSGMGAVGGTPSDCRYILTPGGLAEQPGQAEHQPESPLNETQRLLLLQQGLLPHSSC
# Test: HTRF KinEASE-TK biochemical potency, TYRO3
# Conditions: 1 nM TYRO3, 700 μM ATP
# Method: Purified recombinant human AXL, TYRO3 and MER proteins were purchased from Invitrogen™. 10 nM AXL, 2 nM TYRO3 or MER were incubated with varying concentrations of compounds in 50 mM HEPES, pH 7.4, 10 mM MgCl2, 0.01% BSA, 1 mM DTT and 2% DMSO in a total volume of 20 μl in a 384-well microplate (Corning™ #3640) at RT for 1 h. The AXL, TYRO3 and MER enzymatic reaction was initiated by transferring 10 μl of enzyme and compound mixture into 10 μl of 1.6 μM TK Substrate-biotin (HTRF® KinEASE-TK kit, Cisbio) and 1400 μM ATP pre-incubated in 50 mM HEPES, pH 7.4, 10 mM MgCl2, 0.01% BSA, 1 mM DTT in a 384-well microplate (Corning™ #3640) at RT, giving the final reaction conditions: 5 nM AXL, 1 nM TYRO3 or MER, 800 nM TK Substrate-biotin and 700 μM ATP in 50 mM HEPES, pH 7.4, 10 mM MgCl2, 0.01% BSA, 1 mM DTT and 1% DMSO with varying concentrations of compounds. Following 2 h incubation at RT, the AXL, TYRO3 and MER enzymatic reaction was stopped by transfer of 10 μl of reaction into 10 μl of detection mix (400 nM Streptavidin-XL665, 200-fold dilution TK Antibody-Cryptate and detection buffer, HTRF® KinEASE-TK kit, Cisbio) in a white 384-well microplate (Perkin Elmer, OptiPlate 384). After 1 h incubation at RT, the plate was put into a plate reader (Evision) to read at 665/620 nm (acceptor/donor) for HTRF. The value of the DMSO blank (MIN inhibition=100% activity) was used as a negative control. The positive control was established by adding 5 μl of enzyme and DMSO mixture into 10 μl of detection mix followed by addition of 5 μl of TK Substrate-biotin and ATP mixture (MAX inhibition=0% activity). To calculate the percent activity, Equation 1 was used. Ratio665/620 is the value at a given compound concentration: […]
row,IC50 [nM],Structure (SMILES)
1,< 100,"CC1(O)CCOc2cc(-c3n[nH]c4ncc(-c5ccc6c(c5)CCN(C5CCCC5)CC6)cc34)ccc21 (centres unmarked) [Example 26, 7-[5-(3-Cyclopentyl-2,3,4,5-tetrahydro-1H-3-benzazepin-7-yl)-1H-pyrazolo[3,4-b]pyridin-3-yl]-4-methyl-3,4-dihydro-2H-1-benzopyran-4-ol]"
2,< 100,"O=C1NCCOc2cc(-c3n[nH]c4ncc(-c5ccc6c(c5)CCC(N5CCC5)CC6)cc34)ccc21 (centres unmarked) [Example 52, 8-(5-(7-(Azetidin-1-yl)-6,7,8,9-tetrahydro-5H-benzo[7]annulen-2-yl)-1H-pyrazolo[3,4-b]pyridin-3-yl)-3,4-dihydrobenzo[f][1,4]oxazepin-5(2H)-one]"
3,< 100,"C[C@@H]1CCCN1C1CCc2ccc(-c3cnc4[nH]nc(-c5ccc6c(c5)C(=O)NC6(C)C)c4c3)cc2CC1 (stereo partly drawn) [Example 38, 3,3-Dimethyl-6-(5-{7-[(2R)-2-methylpyrrolidin-1-yl]-6,7,8,9-tetrahydro-5H-benzo[7]annulen-2-yl}-1H-pyrazolo[3,4-b]pyridin-3-yl)-2,3-dihydro-1H-isoindol-1-one]"
4,< 100,"C[C@@H]1CCCN1C1CCc2ccc(-c3cnc4[nH]nc(-c5ccc6c(c5F)OCCNC6=O)c4c3)cc2CC1 (stereo partly drawn) [Example 60, 9-Fluoro-8-(5-{7-[(2R)-2-methylpyrrolidin-1-yl]-6,7,8,9-tetrahydro-5H-benzo[7]annulen-2-yl}-1H-pyrazolo[3,4-b]pyridin-3-yl)-2,3,4,5-tetrahydro-1,4-benzoxazepin-5-one]"
5,100 to 1000,"C[C@@H]1CCCN1C1CCc2ccc(-c3cnc4[nH]nc(-c5ccc6c(c5)OCCNS6(=O)=O)c4c3)cc2CC1 (stereo partly drawn) [Example 66, 7-(5-{7-[(2R)-2-Methylpyrrolidin-1-yl]-6,7,8,9-tetrahydro-5H-benzo[7]annulen-2-yl}-1H-pyrazolo[3,4-b]pyridin-3-yl)-3,4-dihydro-2H-5,12,2-benzoxathiazepine-1,1-dione]"
6,< 100,"C[C@@H]1CCCN1C1CCc2ccc(-c3cnc4[nH]nc(-c5ccc6c(c5)OCC5(CC5)NC6=O)c4c3)cc2CC1 (stereo partly drawn) [Example 36, 8-(5-{7-[(2R)-2-Methylpyrrolidin-1-yl]-6,7,8,9-tetrahydro-5H-benzo[7]annulen-2-yl}-1H-pyrazolo[3,4-b]pyridin-3-yl)-4,5-dihydro-2H-spiro[1,4-benzoxazepine-3,1′-cyclopropan]-5-one]"
7,< 100,"CC1(O)CCOc2cc(-c3n[nH]c4ncc(-c5ccc6c(c5)CC[C@@H](N5CCCC5)CC6)cc34)ccc21 (stereo partly drawn) [Example 31, 4-Methyl-7-{5-[(7S)-7-(pyrrolidin-1-yl)-6,7,8,9-tetrahydro-5H-benzo[7]annulen-2-yl]-1H-pyrazolo[3,4-b]pyridin-3-yl}-3,4-dihydro-2H-1-benzopyran-4-ol]"
8,< 100,"CC1(N2CCCC2)CCc2ccc(-c3cnc4[nH]nc(-c5ccc6c(c5)OCCNC6=O)c4c3)cc2CC1 (centres unmarked) [Example 22, 8-{5-[7-Methyl-7-(pyrrolidin-1-yl)-6,7,8,9-tetrahydro-5H-benzo[7]annulen-2-yl]-1H-pyrazolo[3,4-b]pyridin-3-yl}-2,3,4,5-tetrahydro-1,4-benzoxazepin-5-one]"
9,< 100,"O=C1NCCOc2cc(-c3n[nH]c4ncc(-c5ccc6c(c5)CCC(N5CC[C@@H](O)C5)CC6)cc34)ccc21 (stereo partly drawn) [Example 51, 8-(5-(7-((R)-3-Hydroxypyrrolidin-1-yl)-6,7,8,9-tetrahydro-5H-benzo[7]annulen-2-yl)-1H-pyrazolo[3,4-b]pyridin-3-yl)-3,4-dihydrobenzo[f][1,4]oxazepin-5(2H)-one]"
10,< 100,"C[C@@H]1CCCN1C1CCc2cc(-c3cnc4[nH]nc(-c5ccc6c(c5)OCCNC6=O)c4c3)cc(Cl)c2CC1 (stereo partly drawn) [Example 65, 8-(5-{4-Chloro-7-[(2R)-2-methylpyrrolidin-1-yl]-6,7,8,9-tetrahydro-5H-benzo[7]annulen-2-yl}-1H-pyrazolo[3,4-b]pyridin-3-yl)-2,3,4,5-tetrahydro-1,4-benzoxazepin-5-one]"
11,100 to 1000,"CC1(O)CCCCc2cc(-c3n[nH]c4ncc(-c5ccc6c(c5)CCN(C5CCCC5)CC6)cc34)ccc21 (centres unmarked) [Example 27, 2-[5-(3-Cyclopentyl-2,3,4,5-tetrahydro-1H-3-benzazepin-7-yl)-1H-pyrazolo[3,4-b]pyridin-3-yl]-5-methyl-6,7,8,9-tetrahydro-5H-benzo[7]annulen-5-ol]"
12,< 100,"O=C1NCCOc2cc(-c3n[nH]c4ncc(-c5ccc6c(c5)CCC(N5CCCC5)CC6)cc34)ccc21 (racemic) [Example 1, 8-{5-[7-(Pyrrolidin-1-yl)-6,7,8,9-tetrahydro-5H-benzo[7]annulen-2-yl]-1H-pyrazolo[3,4-b]pyridin-3-yl}-2,3,4,5-tetrahydro-1,4-benzoxazepin-5-one]"
13,< 100,"C[C@@H]1CCCN1C1CCc2cc(F)c(-c3cnc4[nH]nc(-c5ccc6c(c5)OCCNC6=O)c4c3)cc2CC1 (stereo partly drawn) [Example 58, 8-(5-{3-Fluoro-7-[(2R)-2-methylpyrrolidin-1-yl]-6,7,8,9-tetrahydro-5H-benzo[7]annulen-2-yl}-1H-pyrazolo[3,4-b]pyridin-3-yl)-2,3,4,5-tetrahydro-1,4-benzoxazepin-5-one]"
14,< 100,"O=C1NCCOc2cc(-c3n[nH]c4ncc(-c5ccc6c(c5)CCC(N[C@@H]5CCOC5)CC6)cc34)ccc21 (stereo partly drawn) [Example 46, 8-[5-(7-{[(3R)—Oxolan-3-yl]amino}-6,7,8,9-tetrahydro-5H-benzo[7]annulen-2-yl)-1H-pyrazolo[3,4-b]pyridin-3-yl]-2,3,4,5-tetrahydro-1,4-benzoxazepin-5-one]"
15,< 100,"O=C1NCCOc2cc(-c3n[nH]c4ncc(-c5ccc6c(c5)CCN(C5CCCC5)CC6)cc34)ccc21 [Example 7, 8-[5-(3-Cyclopentyl-2,3,4,5-tetrahydro-1H-3-benzazepin-7-yl)-1H-pyrazolo[3,4-b]pyridin-3-yl]-2,3,4,5-tetrahydro-1,4-benzoxazepin-5-one]"
16,< 100,"O=C1NCCOc2cc(-c3n[nH]c4ncc(-c5ccc6c(c5)CC[C@H](N5CCCC5)CC6)cc34)ccc21 (single isomer, unassigned) [Example 56]"
17,< 100,"CC(C)C(=O)N1CCc2ccc(-c3cnc4[nH]nc(-c5ccc6c(c5)OCCNC6=O)c4c3)cc2CC1 [Example 16, 8-{5-[3-(2-Methylpropanoyl)-2,3,4,5-tetrahydro-1H-3-benzazepin-7-yl]-1H-pyrazolo[3,4-b]pyridin-3-yl}-2,3,4,5-tetrahydro-1,4-benzoxazepin-5-one]"
18,< 100,"O=C1NCCOc2cc(-c3n[nH]c4ncc(-c5ccc6c(n5)CCC(N5CCCC5)CC6)cc34)ccc21 (centres unmarked) [Example 63, 8-{5-[7-(Pyrrolidin-1-yl)-5H,6H,7H,8H,9H-cyclohepta[b]pyridin-2-yl]-1H-pyrazolo[3,4-b]pyridin-3-yl}-2,3,4,5-tetrahydro-1,4-benzoxazepin-5-one]"
19,< 100,"C[C@H]1CCCN1C1Cc2ccc(-c3cnc4[nH]nc(-c5ccc6c(c5)OCC(C)(C)NC6=O)c4c3)cc2C1 (stereo partly drawn) [Example 39, 3,3-Dimethyl-8-(5-{2-[(2S)-2-methylpyrrolidin-1-yl]-2,3-dihydro-1H-inden-5-yl}-1H-pyrazolo[3,4-b]pyridin-3-yl)-2,3,4,5-tetrahydro-1,4-benzoxazepin-5-one]"
20,< 100,"O=C1NCCOc2cc(-c3n[nH]c4ncc(-c5ccc6c(c5)CCC(NC5CCCC5)CC6)cc34)ccc21 (centres unmarked) [Example 42, 8-{5-[7-(Cyclopentylamino)-6,7,8,9-tetrahydro-5H-benzo[7]annulen-2-yl]-1H-pyrazolo[3,4-b]pyridin-3-yl}-2,3,4,5-tetrahydro-1,4-benzoxazepin-5-one]"
